# In patent US20060079453A1, “Hla binding peptides and their uses” (priority 2002, published 2006):
# Where two headings read alike, the source gives them in different places. No end group written: not given here.
# What was measured:
# Assay in all cases: biochemical
# Format in all cases: binding
# [1] = target: HLA-DR DRB1*0101 (DR1) (Homo sapiens, UniProt P01903+P01911, A100R/D57E/F55L/F60I/F76Y/I96L/L162R/M171V/P40L/Q125E/R42F/V115G/Y59C)
# [2] = target: HLA-DR DRB1*0301 (DR3) (Homo sapiens, UniProt P01903+P01911, A100K/A102G/A103R/A169T/F55Y/I96L/K41T/L162R/M171V/P40S/Q125H/Q178H/Q39Y/R42S/S66N/T106N/T262R/W38E/Y61H)
# [3] = target: HLA-DR DRB1*0701 (DR7) (Homo sapiens, UniProt P01903+P01911, A100R/A102G/A103Q/D57E/D86V/E43K/F76Y/K127E/L162R/M171V/P40G/Q125H/Q99D/R33Q/R42Y/R54Q/S133A/S66F/T210M/V115G/Y107V/Y59L/Y89S)
# [4] = target: HLA-DR DRB1*0802 (DR8) (Homo sapiens, UniProt P01903+P01911, A100R/A103L/A169T/F76Y/H45Y/I96F/K41T/L162R/M171V/P40S/Q125H/Q178H/Q39Y/Q99D/R218S/R42G/S66Y/V115G/W38E)
# [5] = target: HLA-DR DRB1*0901 (DR9) (Homo sapiens, UniProt P01903+P01911, A100R/A103E/D57H/D86V/F55Y/F60I/F76Y/I96F/K127E/L162R/M171V/P40D/Q125H/Q99R/R33Q/R42F/S133A/S66N/T210M/V115G/W38K/Y107V/Y59G/Y89S)
# [6] = target: HLA-DR DRB1*0401 (DR4) (Homo sapiens, UniProt P01903+P01911, A100K/A169T/F76Y/I96L/K127E/L162R/M171V/N62H/P40V/Q125Y/R42H/S133A/S149N/S66Y/V115G/V209L/W38E)
# [7] = target: HLA-DR DRB1*1101 (DR11) (Homo sapiens, UniProt P01903+P01911, A100R/A169T/A87E/I96F/K41T/L162R/M171V/P40S/Q125H/Q178H/Q39Y/Q99D/R42S/S66Y/T262R/V115G/W38E)
# [8] = target: HLA-DR DRB3*0101 (DR52) (Homo sapiens, UniProt P01903+P79483)
# [9] = target: HLA-DR DRB5*0101 (DR51) (Homo sapiens, UniProt P01903+Q30154)
# [10] = target: HLA-DR DRB1*1501 (DR15) (Homo sapiens, UniProt P01903+P01911)
# [11] = target: HLA-DR DRB1*1302 (DR13) (Homo sapiens, UniProt P01903+P01911, A100E/A169T/K41T/L162R/M171V/P40S/Q125H/Q178H/Q39Y/Q99D/R42S/S66N/T262R/V115G/W38E/Y61H)
# [12] = target: HLA-DR DRB4*0101 (DR53) (Homo sapiens, UniProt P01903+P13762, G164S)
# Sequence of HLA-DR DRB1*1101 (DR11) (P01903 26-254 limits assumed, other chains not shown): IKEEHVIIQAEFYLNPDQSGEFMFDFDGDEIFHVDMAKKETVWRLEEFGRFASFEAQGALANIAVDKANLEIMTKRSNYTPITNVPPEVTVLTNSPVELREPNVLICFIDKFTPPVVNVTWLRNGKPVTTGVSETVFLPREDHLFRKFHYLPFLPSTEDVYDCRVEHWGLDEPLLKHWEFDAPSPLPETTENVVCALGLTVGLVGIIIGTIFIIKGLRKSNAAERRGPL
# Sequence of HLA-DR DRB1*0301 (DR3) (P01903 26-254 limits assumed, other chains not shown): as above
# Sequence of HLA-DR DRB1*1302 (DR13) (P01903 26-254 limits assumed, other chains not shown): as above
compound,measurement,setting,value
LAHYDVLLSYPNK,IC50,[1]; read-out: DRB1 *0101,79 nM
same,IC50,[2]; read-out: DRB1 *0301,37.5 µM
same,IC50,[3]; read-out: DRB1 *0701,3.62 µM
same,IC50,[4]; read-out: DRB1 *0802,0.415 µM
same,IC50,[5]; read-out: DRB1 *0901,1010 nM
DDYVKQYTKQYTKQNTLKK,IC50,[6]; DRB1 *0401,160 nM
same,IC50,[7]; DRB1 *1101,> 1.11 µM
same,IC50,[8],> 11.1 µM
same,IC50,[9]; DRB5 *0101,35 nM
KPAVYTKVVHYRKWI,IC50,[10]; read-out: DRBI *1501,401 nM
same,IC50,[8]; read-out: DRB3 *0101,7.19 µM
same,IC50,[9]; read-out: DRB5 *0101,23 nM
TAWTIYRVEILRNFY,IC50,[7]; read-out: DRB1 *1101,5.05 µM
same,IC50,[11]; read-out: DRBI *1302,72 nM
same,IC50,[8]; read-out: DRB3 *0101,14.4 µM
same,IC50,[12]; read-out: DRB4 *0101,26 nM
same,IC50,[9]; read-out: DRB5 *0101,518 nM
DKAVSGLRSLTTLLR,IC50,[1]; DRB1 *0101,13 nM
same,IC50,[2],4.33 µM
same,IC50,[6]; DRB1 *0401,1010 nM
same,IC50,[4],16.4 µM
same,IC50,[5]; DRB1 *0901,> 78900 nM
same,IC50,[7]; DRB1 *1101,0.052 µM
same,IC50,[11]; DRBI *1302,187 nM
same,IC50,[10]; DRBI *1501,60 nM
same,IC50,[12]; DRB4 *0101,2010 nM
same,IC50,[9]; DRB5 *0101,104 nM
LWQLNGRLEYCLKDR,IC50,[8],29 µM
CC[C@H](C)[C@H](NC(=O)[C@H](CCC(=O)O)NC(=O)[C@H](CC(N)=O)NC(=O)CNC(=O)[C@H](CC(=O)O)NC(=O)[C@H](CCC(=O)O)NC(=O)[C@H](CC(N)=O)NC(=O)[C@@H](NC(=O)[C@@H](NC(=O)[C@H](CO)NC(=O)[C@@H](NC(=O)[C@@H](N)Cc1ccc(O)cc1)[C@@H](C)CC)[C@@H](C)CC)[C@@H](C)CC)C(=O)N[C@@H](Cc1ccccc1)C(=O)N[C@@H](CC(N)=O)C(=O)N[C@H](C(=O)O)[C@@H](C)O,IC50,[2],0.397 µM
same,IC50,[6]; DRB1 *0401,624 nM
same,IC50,[3]; DRB1 *0701,23.7 µM
same,IC50,[4],> 123 µM
same,IC50,[5]; DRB1 *0901,83100 nM
same,IC50,[7]; DRB1 *1101,> 18.9 µM
same,IC50,[11]; DRBI *1302,346 nM
same,IC50,[10]; DRBI *1501,2710 nM
same,IC50,[12]; DRB4 *0101,3710 nM
same,IC50,[9]; DRB5 *0101,73000 nM
IFAIFRQDSSSTGWN,IC50,[2],0.402 µM
same,IC50,[6]; DRB1 *0401,9.6 nM
same,IC50,[4],4.73 µM
same,IC50,[5]; DRB1 *0901,970 nM
same,IC50,[7]; DRB1 *1101,4.56 µM
same,IC50,[11]; DRBI *1302,775 nM
same,IC50,[10]; DRBI *1501,204 nM
same,IC50,[12]; DRB4 *0101,30 nM
same,IC50,[9]; DRB5 *0101,109000 nM
LGFLQRSSNTQTQKL,IC50,[7]; read-out: DRB1 *1101,26.2 µM
same,IC50,[11]; read-out: DRBI *1302,21 nM
same,IC50,[8]; read-out: DRB3 *0101,> 1750 µM
same,IC50,[9]; read-out: DRB5 *0101,339 nM
YLVTGERGFFYTKPT,IC50,[10]; read-out: DRBI *1501,> 21000 nM
same,IC50,[8]; read-out: DRB3 *0101,9.57 µM
same,IC50,[12]; read-out: DRB4 *0101,27900 nM
SHDLMLLRLSEPAKI,IC50,[11]; read-out: DRBI *1302,1.8 nM
same,IC50,[8]; read-out: DRB3 *0101,5.36 µM
same,IC50,[12]; read-out: DRB4 *0101,10 nM
same,IC50,[9]; read-out: DRB5 *0101,2030 nM
MTNLAALFPPEGVSI,IC50,[7]; read-out: DRB1 *1101,141 µM
same,IC50,[8]; read-out: DRB3 *0101,> 8.83 µM
same,IC50,[12]; read-out: DRB4 *0101,4610 nM
same,IC50,[9]; read-out: DRB5 *0101,141000 nM
RQEILDLWVYHTQGF,IC50,[2],10.5 µM
same,IC50,[6]; DRB1 *0401,5930 nM
same,IC50,[3]; DRB1 *0701,3.05 µM
same,IC50,[4],2.73 µM
same,IC50,[5]; DRB1 *0901,3680 nM
same,IC50,[7]; DRB1 *1101,11.1 µM
same,IC50,[10]; DRBI *1501,985 nM
same,IC50,[9]; DRB5 *0101,> 20500 nM
DSSLEGNYTLRVDCT,IC50,[7]; read-out: DRB1 *1101,> 50 µM
same,IC50,[11]; read-out: DRBI *1302,7.6 nM
same,IC50,[10]; read-out: DRBI *1501,1200 nM
same,IC50,[8]; read-out: DRB3 *0101,0.576 µM
same,IC50,[9]; read-out: DRB5 *0101,16800 nM
Ac-NPDAENWNSQFEILEDAA,IC50,[7]; DRB1 *1101,> 33.3 µM
same,IC50,[11]; DRBI *1302,> 10000 nM
same,IC50,[10]; DRBI *1501,> 10000 nM
same,IC50,[8],1 µM
same,IC50,[9]; DRB5 *0101,50000 nM
SHDLMLLRLSEPAEL,IC50,[1]; read-out: DRB1 *0101,532 nM
same,IC50,[2]; read-out: DRB1 *0301,6.22 µM
same,IC50,[6]; read-out: DRB1 *0401,4050 nM
same,IC50,[3]; read-out: DRB1 *0701,0.058 µM
same,IC50,[4]; read-out: DRB1 *0802,3.54 µM
same,IC50,[5]; read-out: DRB1 *0901,64 nM
CC(C)C[C@H](NC(=O)[C@@H]1CCCN1C(=O)[C@H](Cc1c[nH]cn1)NC(=O)[C@@H]1CCCN1C(=O)[C@H](Cc1ccccc1)NC(=O)[C@H](CO)NC(=O)[C@H](Cc1c[nH]cn1)NC(=O)[C@H](CO)NC(=O)[C@@H](NC(=O)[C@H](CCC(N)=O)NC(=O)[C@H](Cc1ccccc1)NC(=O)[C@@H](NC(=O)[C@H](CCC(N)=O)NC(=O)CN)C(C)C)C(C)C)C(=O)N[C@@H](Cc1ccc(O)cc1)C(=O)O,IC50,[2],45 µM
same,IC50,[6]; DRB1 *0401,8.2 nM
same,IC50,[3]; DRB1 *0701,0.027 µM
same,IC50,[4],0.548 µM
same,IC50,[5]; DRB1 *0901,33 nM
same,IC50,[11]; DRBI *1302,146 nM
same,IC50,[10]; DRBI *1501,2170 nM
same,IC50,[9]; DRB5 *0101,128 nM
HSLFHPEDTGQVFQV,IC50,[8]; read-out: DRB3 *0101,0.553 µM
